Data on three compounds can be found in article PMC10824666 (Nature Cancer, 2023).

For test [1], the target named is LYN (Homo sapiens, UniProt P07948). In words: biochemical. The arrangement: Eurofins DiscoverX kinase panel, competitive binding assay at 1 uM, percent of DMSO control. As to conditions: competitive binding, percent of DMSO control. A digest of the protocol: (§1)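 Single-point profiling at 1 µM compound in a competition-binding format against 96 kinases, read out as POC relative to control; n = 1.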

In test [2] the target is T1, PI3K delta (Homo sapiens, UniProt O00329).
T1 construct: gene PIK3CD
T1 sequence (O00329 1-1044): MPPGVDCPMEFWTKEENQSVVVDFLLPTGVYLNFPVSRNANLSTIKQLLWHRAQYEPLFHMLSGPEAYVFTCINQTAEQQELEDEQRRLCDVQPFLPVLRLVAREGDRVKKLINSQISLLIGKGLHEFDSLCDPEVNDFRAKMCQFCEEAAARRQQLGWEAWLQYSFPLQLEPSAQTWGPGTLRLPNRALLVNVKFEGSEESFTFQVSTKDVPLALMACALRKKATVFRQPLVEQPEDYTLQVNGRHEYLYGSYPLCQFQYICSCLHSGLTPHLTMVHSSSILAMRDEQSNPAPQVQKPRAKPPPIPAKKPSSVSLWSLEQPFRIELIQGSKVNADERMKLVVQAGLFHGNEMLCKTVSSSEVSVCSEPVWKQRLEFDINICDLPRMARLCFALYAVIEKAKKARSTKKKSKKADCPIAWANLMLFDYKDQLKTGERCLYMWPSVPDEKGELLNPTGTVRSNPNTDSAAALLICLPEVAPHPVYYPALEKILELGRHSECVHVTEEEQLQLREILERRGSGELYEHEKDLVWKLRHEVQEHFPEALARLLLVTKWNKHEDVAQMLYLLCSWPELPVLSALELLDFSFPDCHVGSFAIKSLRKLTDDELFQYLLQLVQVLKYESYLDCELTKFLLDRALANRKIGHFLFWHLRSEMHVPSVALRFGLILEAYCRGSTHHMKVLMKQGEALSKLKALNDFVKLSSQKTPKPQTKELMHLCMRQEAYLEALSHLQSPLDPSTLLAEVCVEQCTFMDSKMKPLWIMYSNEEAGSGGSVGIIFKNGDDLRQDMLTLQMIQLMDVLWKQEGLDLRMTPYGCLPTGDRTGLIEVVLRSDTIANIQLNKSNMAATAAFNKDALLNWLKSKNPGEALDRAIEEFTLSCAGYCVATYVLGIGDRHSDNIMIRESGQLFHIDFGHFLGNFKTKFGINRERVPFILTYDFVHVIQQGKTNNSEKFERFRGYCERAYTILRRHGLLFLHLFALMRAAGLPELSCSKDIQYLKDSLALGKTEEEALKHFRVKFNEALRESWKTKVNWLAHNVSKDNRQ
In words: biochemical. As to conditions: competitive binding, percent of DMSO control. Set-up: Eurofins DiscoverX kinase panel, competitive binding assay at 1 uM, percent of DMSO control. A digest of the protocol:
as §1

Setting [3] is: read-out: Kinome Profiling performed by Eurofins DiscoverX / AM-0277, 1.0 µM / POC.
Where [4] appears, read: read-out: Kinome Profiling performed by Eurofins DiscoverX / AM-1882, 1.0 µM / POC.
Setting [5] is: read-out: Kinome Profiling performed by Eurofins DiscoverX / AM-5308, 1.0 µM / POC.

Where two headings read alike, the source gives them in different places.

LYN, sequence (P07948 whole entry): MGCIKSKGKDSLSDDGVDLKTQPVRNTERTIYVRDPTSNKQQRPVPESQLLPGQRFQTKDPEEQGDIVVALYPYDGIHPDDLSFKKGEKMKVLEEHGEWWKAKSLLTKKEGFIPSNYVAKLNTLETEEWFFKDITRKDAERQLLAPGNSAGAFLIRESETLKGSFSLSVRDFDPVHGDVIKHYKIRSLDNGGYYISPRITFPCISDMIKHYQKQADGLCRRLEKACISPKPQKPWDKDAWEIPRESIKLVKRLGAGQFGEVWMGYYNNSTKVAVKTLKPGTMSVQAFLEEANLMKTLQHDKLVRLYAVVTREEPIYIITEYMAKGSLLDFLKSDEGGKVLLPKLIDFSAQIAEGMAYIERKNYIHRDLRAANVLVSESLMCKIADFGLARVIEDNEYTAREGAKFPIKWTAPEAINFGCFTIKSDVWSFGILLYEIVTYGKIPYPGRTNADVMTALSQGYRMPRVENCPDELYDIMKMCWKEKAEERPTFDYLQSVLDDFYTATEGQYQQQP

Consider `CC(C)(CO)Nc1ccc(C(=O)Nc2cccc(S(=O)(=O)C3CCCC3)c2)c(N2CCC3(CC2)CC3)n1` [AM-0277], for which the remaining activity at 1 µM in test [1] (setting [3]) and in test [2] (setting [3]) was 100% in each case.

`CC(C)(C)NS(=O)(=O)c1cccc(NC(=O)c2ccc(S(=O)(=O)NC(C)(C)C)cc2N2CCC3(CC2)CC3)c1` [AM-1882]: the remaining activity at 1 µM in test [1] (setting [4]) amounted to 99.5%; in test [2] (setting [4]), 96.5%.

For `C[C@@H]1CN(c2cccc(NC(=O)c3ccc(NS(=O)(=O)CCO)cc3N3CCC4(CC3)CC4)n2)CCO1` [AM-5308], the results for the remaining activity at 1 µM in test [1] (setting [5]) and in test [2] (setting [5]) were 86.5% and 68%, respectively.
